PubChem BioAssay (NCI)
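A five-concentration, 48-hour dose response in 96-well plates underlies each endpoint, interpolated linearly between surrounding concentrations. TGI: total growth inhibition.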

Legend:
Experiment in all cases: DTP human tumour cell line panel, 48 h
IGROV1 ovarian = tested on: IGROV1 ovarian
CCRF-CEM leukemia = tested on: CCRF-CEM leukemia
NCI-H23 lung = tested on: NCI-H23 lung
SK-MEL-28 melanoma = tested on: SK-MEL-28 melanoma
HT29 colon = tested on: HT29 colon
DMS 114 small cell lung = tested on: DMS 114 small cell lung
RPMI-8226 leukemia = tested on: RPMI-8226 leukemia
OVCAR-3 ovarian = tested on: OVCAR-3 ovarian
SNB-19 CNS = tested on: SNB-19 CNS
M19-MEL melanoma = tested on: M19-MEL melanoma
SR leukemia = tested on: SR leukemia
OVCAR-8 ovarian = tested on: OVCAR-8 ovarian
HOP-92 NSCLC = tested on: HOP-92 NSCLC
CAKI-1 renal = tested on: CAKI-1 renal
LXFL 529 NSCLC = tested on: LXFL 529 NSCLC
SNB-75 CNS = tested on: SNB-75 CNS
SK-MEL-2 melanoma = tested on: SK-MEL-2 melanoma
UACC-62 melanoma = tested on: UACC-62 melanoma
HCT-116 colon = tested on: HCT-116 colon
A498 renal = tested on: A498 renal
HOP-62 NSCLC = tested on: HOP-62 NSCLC
KM12 colon = tested on: KM12 colon
OVCAR-4 ovarian = tested on: OVCAR-4 ovarian
A549 NSCLC = tested on: A549 NSCLC
K-562 leukemia = tested on: K-562 leukemia
SF-268 CNS = tested on: SF-268 CNS
UO-31 renal = tested on: UO-31 renal
SF-539 CNS = tested on: SF-539 CNS
SF-295 CNS = tested on: SF-295 CNS
MOLT-4 leukemia = tested on: MOLT-4 leukemia
SW-620 colon = tested on: SW-620 colon
EKVX NSCLC = tested on: EKVX NSCLC
DMS 273 small cell lung = tested on: DMS 273 small cell lung
NCI-H226 lung = tested on: NCI-H226 lung
NCI-H522 lung = tested on: NCI-H522 lung
M14 melanoma = tested on: M14 melanoma
XF 498 CNS = tested on: XF 498 CNS
SN12C renal = tested on: SN12C renal
HCC-2998 colon = tested on: HCC-2998 colon
TK-10 renal = tested on: TK-10 renal
DLD-1 colon = tested on: DLD-1 colon
HL-60(TB) leukemia = tested on: HL-60(TB) leukemia
UACC-257 melanoma = tested on: UACC-257 melanoma
786-0 renal = tested on: 786-0 renal
MALME-3M melanoma = tested on: MALME-3M melanoma
SK-OV-3 ovarian = tested on: SK-OV-3 ovarian
COLO 205 colon = tested on: COLO 205 colon
SNB-78 CNS = tested on: SNB-78 CNS
ACHN renal = tested on: ACHN renal
RXF 393 renal = tested on: RXF 393 renal
HCT-15 colon = tested on: HCT-15 colon
U251 CNS = tested on: U251 CNS
NCI-H460 lung = tested on: NCI-H460 lung
HOP-18 NSCLC = tested on: HOP-18 NSCLC
LOX IMVI melanoma = tested on: LOX IMVI melanoma
KM20L2 colon = tested on: KM20L2 colon
PC-3 prostate = tested on: PC-3 prostate
MDA-MB-231 breast = tested on: MDA-MB-231 breast
OVCAR-5 ovarian = tested on: OVCAR-5 ovarian
HS 578T breast = tested on: HS 578T breast
T-47D breast = tested on: T-47D breast
MCF7 breast = tested on: MCF7 breast
BT-549 breast = tested on: BT-549 breast
SK-MEL-5 melanoma = tested on: SK-MEL-5 melanoma
MDA-MB-435 = tested on: MDA-MB-435
DU-145 prostate = tested on: DU-145 prostate
MDA-N = tested on: MDA-N
NCI/ADR-RES ovarian = tested on: NCI/ADR-RES ovarian

## O=C1CNS(=O)(=O)N1
IGROV1 ovarian
  TGI: > 100 µM
CCRF-CEM leukemia
  TGI: > 100 µM
NCI-H23 lung
  TGI: > 100 µM
SK-MEL-28 melanoma
  TGI: > 100 µM
HT29 colon
  TGI: > 100 µM
DMS 114 small cell lung
  TGI: > 100 µM
RPMI-8226 leukemia
  TGI: > 100 µM
OVCAR-3 ovarian
  TGI: > 100 µM
SNB-19 CNS
  TGI: > 100 µM
M19-MEL melanoma
  TGI: > 100 µM
SR leukemia
  TGI: > 100 µM
OVCAR-8 ovarian
  TGI: > 100 µM
HOP-92 NSCLC
  TGI: > 100 µM
CAKI-1 renal
  TGI: > 100 µM
LXFL 529 NSCLC
  TGI: > 100 µM
SNB-75 CNS
  TGI: > 100 µM
SK-MEL-2 melanoma
  TGI: > 100 µM
UACC-62 melanoma
  TGI: > 100 µM
HCT-116 colon
  TGI: > 100 µM
A498 renal
  TGI: > 100 µM
HOP-62 NSCLC
  TGI: > 100 µM
KM12 colon
  TGI: > 100 µM
OVCAR-4 ovarian
  TGI: > 100 µM
A549 NSCLC
  TGI: > 100 µM
K-562 leukemia
  TGI: > 100 µM
SF-268 CNS
  TGI: > 100 µM
UO-31 renal
  TGI: > 100 µM
SF-539 CNS
  TGI: > 100 µM
SF-295 CNS
  TGI: > 100 µM
MOLT-4 leukemia
  TGI: > 100 µM
SW-620 colon
  TGI: > 100 µM
EKVX NSCLC
  TGI: > 100 µM
DMS 273 small cell lung
  TGI: > 100 µM
NCI-H226 lung
  TGI: > 100 µM
NCI-H522 lung
  TGI: > 100 µM
M14 melanoma
  TGI: > 100 µM
XF 498 CNS
  TGI: > 100 µM
SN12C renal
  TGI: > 100 µM
HCC-2998 colon
  TGI: > 100 µM
TK-10 renal
  TGI: > 100 µM
DLD-1 colon
  TGI: > 100 µM
HL-60(TB) leukemia
  TGI: > 100 µM
UACC-257 melanoma
  TGI: > 100 µM
786-0 renal
  TGI: > 100 µM
MALME-3M melanoma
  TGI: > 100 µM
SK-OV-3 ovarian
  TGI: > 100 µM
COLO 205 colon
  TGI: > 100 µM
SNB-78 CNS
  TGI: > 100 µM

## CCOC(=O)C1(Cc2ccc3ccccc3c2)CCCCC(=O)N1 (centres undefined)
IGROV1 ovarian
  TGI: > 100 µM
CCRF-CEM leukemia
  TGI: > 100 µM
NCI-H23 lung
  TGI: > 100 µM
ACHN renal
  TGI: > 100 µM
RXF 393 renal
  TGI: > 100 µM
SK-MEL-28 melanoma
  TGI: > 100 µM
HT29 colon
  TGI: > 100 µM
DMS 114 small cell lung
  TGI: 72.9 µM
RPMI-8226 leukemia
  TGI: 58.2 µM
OVCAR-3 ovarian
  TGI: 92.5 µM
SNB-19 CNS
  TGI: > 100 µM
M19-MEL melanoma
  TGI: > 100 µM
OVCAR-8 ovarian
  TGI: > 100 µM
HCT-15 colon
  TGI: > 100 µM
HOP-92 NSCLC
  TGI: 59.2 µM
CAKI-1 renal
  TGI: > 100 µM
LXFL 529 NSCLC
  TGI: > 100 µM
SNB-75 CNS
  TGI: 9.22 µM
UACC-62 melanoma
  TGI: > 100 µM
U251 CNS
  TGI: > 100 µM
HOP-62 NSCLC
  TGI: > 100 µM
NCI-H460 lung
  TGI: > 100 µM
OVCAR-4 ovarian
  TGI: > 100 µM
A549 NSCLC
  TGI: > 100 µM
K-562 leukemia
  TGI: > 100 µM
SF-268 CNS
  TGI: > 100 µM
HOP-18 NSCLC
  TGI: > 100 µM
UO-31 renal
  TGI: 82.2 µM
SF-295 CNS
  TGI: 35.2 µM
MOLT-4 leukemia
  TGI: > 100 µM
SW-620 colon
  TGI: > 100 µM
EKVX NSCLC
  TGI: > 100 µM
DMS 273 small cell lung
  TGI: 36.9 µM
M14 melanoma
  TGI: > 100 µM
XF 498 CNS
  TGI: > 100 µM
SN12C renal
  TGI: > 100 µM
HCC-2998 colon
  TGI: 66.6 µM
TK-10 renal
  TGI: > 100 µM
DLD-1 colon
  TGI: > 100 µM
HL-60(TB) leukemia
  TGI: 30.3 µM
786-0 renal
  TGI: > 100 µM
LOX IMVI melanoma
  TGI: > 100 µM
MALME-3M melanoma
  TGI: 86.5 µM
SK-OV-3 ovarian
  TGI: > 100 µM
KM20L2 colon
  TGI: > 100 µM
COLO 205 colon
  TGI: > 100 µM
SNB-78 CNS
  TGI: > 100 µM

## N#Cc1c(-c2ccccc2)c2c([nH]c1=O)-c1cc([N+](=O)[O-])ccc1CCC2
IGROV1 ovarian
  TGI: > 100 µM
CCRF-CEM leukemia
  TGI: 94.3 µM
NCI-H23 lung
  TGI: 71.1 µM
ACHN renal
  TGI: 83.6 µM
RXF 393 renal
  TGI: 42.3 µM
SK-MEL-28 melanoma
  TGI: > 100 µM
HT29 colon
  TGI: > 100 µM
RPMI-8226 leukemia
  TGI: > 100 µM
OVCAR-3 ovarian
  TGI: 45 µM
PC-3 prostate
  TGI: > 100 µM
MDA-MB-231 breast
  TGI: > 100 µM
OVCAR-5 ovarian
  TGI: > 100 µM
SNB-19 CNS
  TGI: > 100 µM
HS 578T breast
  TGI: > 100 µM
T-47D breast
  TGI: 52.2 µM
SR leukemia
  TGI: > 100 µM
OVCAR-8 ovarian
  TGI: > 100 µM
HCT-15 colon
  TGI: 61 µM
MCF7 breast
  TGI: 71.8 µM
HOP-92 NSCLC
  TGI: 58.9 µM
CAKI-1 renal
  TGI: > 100 µM
SNB-75 CNS
  TGI: 49.9 µM
SK-MEL-2 melanoma
  TGI: 59.3 µM
UACC-62 melanoma
  TGI: 37.3 µM
HCT-116 colon
  TGI: > 100 µM
BT-549 breast
  TGI: 42.7 µM
SK-MEL-5 melanoma
  TGI: 76 µM
U251 CNS
  TGI: > 100 µM
A498 renal
  TGI: 41 µM
HOP-62 NSCLC
  TGI: 70.2 µM
KM12 colon
  TGI: > 100 µM
NCI-H460 lung
  TGI: > 100 µM
OVCAR-4 ovarian
  TGI: > 100 µM
A549 NSCLC
  TGI: > 100 µM
K-562 leukemia
  TGI: > 100 µM
SF-268 CNS
  TGI: > 100 µM
UO-31 renal
  TGI: > 100 µM
SF-539 CNS
  TGI: 82.5 µM
SF-295 CNS
  TGI: 63.1 µM
MDA-MB-435
  TGI: > 100 µM
MOLT-4 leukemia
  TGI: > 100 µM
SW-620 colon
  TGI: > 100 µM
EKVX NSCLC
  TGI: 88.5 µM
NCI-H226 lung
  TGI: 71.6 µM
NCI-H522 lung
  TGI: 97.8 µM
M14 melanoma
  TGI: 93.4 µM
SN12C renal
  TGI: > 100 µM
HCC-2998 colon
  TGI: 48.2 µM
TK-10 renal
  TGI: > 100 µM
HL-60(TB) leukemia
  TGI: 72.3 µM
UACC-257 melanoma
  TGI: > 100 µM
DU-145 prostate
  TGI: 71.2 µM
786-0 renal
  TGI: > 100 µM
MDA-N
  TGI: > 100 µM
LOX IMVI melanoma
  TGI: 81.1 µM
MALME-3M melanoma
  TGI: > 100 µM
SK-OV-3 ovarian
  TGI: > 100 µM
COLO 205 colon
  TGI: 55.3 µM
NCI/ADR-RES ovarian
  TGI: 71.5 µM
